Values belong to the compound of their own block, whether it stands above or below them.
How the values were obtained:
[1] = molecular target: Cyclin-dependent kinase 2/cyclin E1 (Homo sapiens, UniProt P24941); assay: Inhibition of CDK2/cycE1 (unknown origin) by luciferase reporter gene assay; format: protein-complex assay
KOPTK1 [2] = assay: Anti-tumor activity against human KOPTK1 cells xenografted in invivo animal model assessed as reduction in tumor growth at 10 mg/kg, ip relative to control; format: functional; details: read-out: TGI
KOPTK1 [3] = assay: Cytotoxicity against human KOPTK1 cells assessed as reduction in cell viability; format: functional, cell-based
[4] = molecular target: T1, Cyclin-dependent kinase 9 (Homo sapiens, UniProt P50750)
T1 sequence (P50750 whole entry): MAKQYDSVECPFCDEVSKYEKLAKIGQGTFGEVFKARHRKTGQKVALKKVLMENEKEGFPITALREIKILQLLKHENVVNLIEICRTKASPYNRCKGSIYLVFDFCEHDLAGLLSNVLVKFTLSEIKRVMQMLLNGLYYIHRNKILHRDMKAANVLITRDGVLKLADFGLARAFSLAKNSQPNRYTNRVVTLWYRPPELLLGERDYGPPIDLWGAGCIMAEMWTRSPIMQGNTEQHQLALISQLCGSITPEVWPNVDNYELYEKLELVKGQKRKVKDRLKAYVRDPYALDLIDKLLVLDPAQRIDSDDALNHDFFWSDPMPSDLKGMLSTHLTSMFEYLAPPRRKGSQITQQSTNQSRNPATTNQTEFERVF

[5] = molecular target: T2, Cyclin-dependent kinase 7 (Homo sapiens, UniProt P50613); assay: Inhibition of CDK7 (unknown origin)
T2 sequence (P50613 whole entry): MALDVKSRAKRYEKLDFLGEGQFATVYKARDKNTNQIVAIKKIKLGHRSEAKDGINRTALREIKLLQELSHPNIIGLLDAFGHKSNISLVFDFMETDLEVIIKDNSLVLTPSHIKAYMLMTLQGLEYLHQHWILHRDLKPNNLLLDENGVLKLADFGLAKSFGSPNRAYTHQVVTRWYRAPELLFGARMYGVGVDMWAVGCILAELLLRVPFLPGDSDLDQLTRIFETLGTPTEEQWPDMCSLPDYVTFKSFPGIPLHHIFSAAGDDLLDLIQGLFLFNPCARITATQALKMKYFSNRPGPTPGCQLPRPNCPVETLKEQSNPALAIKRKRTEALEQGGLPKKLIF

[6] = molecular target: T3, Cyclin-dependent kinase 2 (Homo sapiens, UniProt P24941)
AGS = assay: Cytotoxicity against human AGS cells assessed as reduction in cell viability; format: functional, cell-based
[7] = molecular target: T4, Cyclin-dependent kinase 5 (Homo sapiens, UniProt Q00535)
T4 sequence (Q00535 whole entry): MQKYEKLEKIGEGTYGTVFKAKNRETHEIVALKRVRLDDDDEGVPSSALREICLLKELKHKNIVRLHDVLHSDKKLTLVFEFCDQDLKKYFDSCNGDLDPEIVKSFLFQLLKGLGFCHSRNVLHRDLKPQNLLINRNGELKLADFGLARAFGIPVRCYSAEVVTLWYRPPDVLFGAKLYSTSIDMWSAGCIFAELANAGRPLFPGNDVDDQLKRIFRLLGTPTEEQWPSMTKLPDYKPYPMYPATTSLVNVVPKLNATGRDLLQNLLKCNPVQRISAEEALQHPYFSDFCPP

BGC-823 = assay: Anti-tumor activity against human BGC823 cells xenografted in invivo animal model assessed as reduction in tumor growth at 10 mg/kg, ip relative to control; format: functional; details: BGC-823, ip, read-out: TGI
MGC-803 = assay: Cytotoxicity against human MGC803 cells assessed as reduction in cell viability; format: functional, cell-based
[8] = molecular target: T5, Cyclin-dependent kinase 1 (Homo sapiens, UniProt P06493)
T5 sequence (P06493 whole entry): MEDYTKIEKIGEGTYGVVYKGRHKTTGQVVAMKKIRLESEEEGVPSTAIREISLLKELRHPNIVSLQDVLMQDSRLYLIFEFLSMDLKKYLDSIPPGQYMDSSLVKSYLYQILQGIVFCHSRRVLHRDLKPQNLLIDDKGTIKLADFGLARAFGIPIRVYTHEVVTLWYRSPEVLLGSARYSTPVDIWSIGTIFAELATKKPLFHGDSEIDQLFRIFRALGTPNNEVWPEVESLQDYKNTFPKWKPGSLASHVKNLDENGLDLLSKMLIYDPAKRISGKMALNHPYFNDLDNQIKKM

MDA-MB-231 = assay: Cytotoxicity against human MDA-MB-231 cells assessed as reduction in cell viability; format: functional, cell-based
[9] = molecular target: T6, Cyclin-dependent kinase 4 (Homo sapiens, UniProt P11802); assay: Inhibition of CDK4 (unknown origin) by luciferase reporter gene assay
T6 sequence (P11802 whole entry): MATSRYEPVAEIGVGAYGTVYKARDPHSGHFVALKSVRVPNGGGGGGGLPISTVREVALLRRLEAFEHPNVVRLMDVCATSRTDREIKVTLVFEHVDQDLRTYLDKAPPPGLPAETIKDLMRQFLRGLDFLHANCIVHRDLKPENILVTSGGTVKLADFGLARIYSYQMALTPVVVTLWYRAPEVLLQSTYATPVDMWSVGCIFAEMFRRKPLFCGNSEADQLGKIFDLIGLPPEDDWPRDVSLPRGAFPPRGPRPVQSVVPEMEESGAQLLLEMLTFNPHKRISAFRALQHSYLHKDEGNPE

[10] = molecular target: T7, Cyclin-dependent kinase 6 (Homo sapiens, UniProt Q00534); assay: Inhibition of CDK6 (unknown origin) by luciferase reporter gene assay
T7 sequence (Q00534 whole entry): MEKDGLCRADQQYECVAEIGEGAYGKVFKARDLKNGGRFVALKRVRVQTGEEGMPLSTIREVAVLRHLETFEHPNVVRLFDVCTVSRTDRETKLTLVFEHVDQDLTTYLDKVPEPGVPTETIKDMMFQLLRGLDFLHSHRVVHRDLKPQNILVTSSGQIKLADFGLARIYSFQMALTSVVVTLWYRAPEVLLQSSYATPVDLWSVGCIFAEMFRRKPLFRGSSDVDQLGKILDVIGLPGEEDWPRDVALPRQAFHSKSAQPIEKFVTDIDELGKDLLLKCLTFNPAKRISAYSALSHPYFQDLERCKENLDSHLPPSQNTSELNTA

[11] = molecular target: T4, Cyclin-dependent kinase 5; assay: Inhibition of CDK5 (unknown origin) by luciferase reporter gene assay
[12] = molecular target: T5, Cyclin-dependent kinase 1; assay: Inhibition of CDK1 (unknown origin) by luciferase reporter gene assay
MDA-MB-468 = assay: Cytotoxicity against human MDA-MB-468 cells assessed as reduction in cell viability; format: functional, cell-based
CDK7/Cyclin H/MNAT1 = CDK7/Cyclin H/MNAT1 (Homo sapiens, UniProt P50613); assay: Inhibition of CDK7/CycH/MAT1 (unknown origin) by luciferase reporter gene assay; format: protein-complex assay
Chain of CDK7/Cyclin H/MNAT1 (P51946 whole entry): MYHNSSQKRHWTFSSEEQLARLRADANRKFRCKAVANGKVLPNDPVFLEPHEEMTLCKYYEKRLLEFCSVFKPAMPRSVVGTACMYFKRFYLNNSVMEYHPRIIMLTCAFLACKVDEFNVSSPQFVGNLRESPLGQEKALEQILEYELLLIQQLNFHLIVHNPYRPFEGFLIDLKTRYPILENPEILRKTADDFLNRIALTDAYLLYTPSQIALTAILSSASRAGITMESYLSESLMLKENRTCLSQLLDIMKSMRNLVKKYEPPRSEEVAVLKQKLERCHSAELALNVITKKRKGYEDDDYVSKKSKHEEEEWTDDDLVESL
Chain of CDK7/Cyclin H/MNAT1 (P50613 whole entry): as the sequence (P50613 whole entry) above
Chain of CDK7/Cyclin H/MNAT1 (P51948 whole entry, further chain): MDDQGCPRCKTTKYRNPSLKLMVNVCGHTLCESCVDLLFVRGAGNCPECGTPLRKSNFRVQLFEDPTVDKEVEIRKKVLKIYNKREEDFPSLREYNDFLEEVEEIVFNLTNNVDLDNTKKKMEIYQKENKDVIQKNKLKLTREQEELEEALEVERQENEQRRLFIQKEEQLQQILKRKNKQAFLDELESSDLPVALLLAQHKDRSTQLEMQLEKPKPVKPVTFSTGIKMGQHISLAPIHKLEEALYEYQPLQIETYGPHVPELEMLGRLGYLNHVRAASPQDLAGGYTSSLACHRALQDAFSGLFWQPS

[13] = molecular target: T6, Cyclin-dependent kinase 4; assay: Inhibition of CDK4 (unknown origin)
[14] = molecular target: T7, Cyclin-dependent kinase 6; assay: Inhibition of CDK6 (unknown origin)
[15] = molecular target: T3, Cyclin-dependent kinase 2; assay: Inhibition of CDK2 (unknown origin) after 4 hrs
[16] = molecular target: T1, Cyclin-dependent kinase 9; assay: Inhibition of CDK9 (unknown origin) after 4 hrs
[17] = molecular target: T2, Cyclin-dependent kinase 7; assay: Inhibition of CDK7 (unknown origin) after 4 hrs
Jurkat = assay: Cytotoxicity against human Jurkat cells assessed as reduction in cell viability; format: functional, cell-based

SMILES: CN(C)C/C=C/C(=O)Nc1ccc(C(=O)Nc2cccc(Nc3ncc(Cl)c(-c4c[nH]c5ccccc45)n3)c2)cc1
inhibition in vivo at 10 mg/kg (KOPTK1 [2]): 10% | IC50 (KOPTK1 [3]): 1 nM

SMILES: Clc1cnc(N[C@H]2CCCNC2)nc1-c1c[nH]c2ccccc12
IC50 [4]: > 200 nM | IC50 [5]: < 20 nM | IC50 [6]: > 200 nM

SMILES: CN(C)C/C=C/C(=O)Nc1cccc(C(=O)Nc2cccc(Nc3ncc(Cl)c(-c4c[nH]c5ccccc45)n3)c2)c1
IC50 [4]: 134 nM | IC50 (AGS): 190 nM | IC50 [5]: 27 nM | IC50 [7]: 222 nM | IC50 [6]: 96.9 nM | inhibition in vivo at 10 mg/kg (BGC-823): 50% | IC50 (MGC-803): 740 nM | IC50 [8]: 13.9 nM

SMILES: C=CC(=O)Nc1ccc(C(=O)Nc2n[nH]c3c2CN(C(=O)N[C@H](CN(C)C)c2ccccc2)C3(C)C)cc1
IC50 [5]: > 100 nM

SMILES: CN(C)CCCC(=O)Nc1ccc(C(=O)Nc2cccc(Nc3ncc(Cl)c(-c4c[nH]c5ccccc45)n3)c2)cc1
IC50 [5]: 194 nM

SMILES: CC(C)c1cnn2c(NCc3ccccc3)cc(NC[C@]3(CO)CCNC3)nc12
IC50 [12]: 41 nM | IC50 (CDK7/Cyclin H/MNAT1): 14 nM | IC50 [1]: 1 nM

SMILES: CC(C)c1cnn2c(NCc3ccccc3)cc(NCC3CCNCC3)nc12
IC50 (CDK7/Cyclin H/MNAT1): 310 nM

SMILES: CC(C)c1cnn2c(NCc3ccccc3)cc(NC[C@H]3CCCC[C@@H]3O)nc12
IC50 (CDK7/Cyclin H/MNAT1): 687 nM

SMILES: C=CC(=O)Nc1ccc(C(=O)Nc2ccc(Nc3n[nH]c4c3CN(C(=O)N[C@H](CN(C)C)c3ccccc3)C4(C)C)cc2)cc1
IC50 [5]: < 100 nM

SMILES: Clc1cnc(N[C@@H]2CCCNC2)nc1-c1c[nH]c2ccccc12
IC50 [4]: > 200 nM | IC50 [5]: 20 to 200 nM | IC50 [6]: > 200 nM

SMILES: Clc1cnc(NC2CCCCC2)nc1-c1c[nH]c2cccnc12
IC50 [16]: 20 to 200 nM | IC50 [17]: 20 nM

SMILES: C=CC(=O)Nc1ccc(C(=O)Nc2cccc(Nc3n[nH]c4c3CN(C(=O)N[C@H](CN(C)C)c3ccccc3)C4(C)C)c2)cc1
IC50 (Jurkat): 2 nM | IC50 [5]: 20 nM

Second part, led by results:

IC50 [1]: 2030 nM
SMILES: CC(C)c1cnn2c(NCc3ccccc3)cc(NC[C@]3(O)CCNC[C@H]3O)nc12 (racemic)

IC50 [9]: 42000 nM | IC50 [10]: 32100 nM | IC50 [11]: 9000 nM | IC50 [12]: 1520 nM
SMILES: CC(C)c1cnn2c(NCc3ccccc3)cc(NC[C@@H]3CCNC[C@H]3O)nc12
IC50 (MDA-MB-231): 1300 nM | IC50 (MDA-MB-468): 1500 nM

IC50 [4]: 7450 nM | IC50 [13]: > 10000 nM | IC50 [5]: < 5 nM | IC50 [6]: 3900 nM | IC50 [14]: > 10000 nM | IC50 [8]: > 10000 nM
SMILES: CC(C)c1cnn2c(NCc3ccccc3N(C)C)nc(OC3CCN(C)CC3)nc12

IC50 [15]: > 200 nM | IC50 [16]: 20 to 200 nM | IC50 [17]: < 20 nM
SMILES: FC(F)(F)c1cnc(N[C@H]2CCCNC2)nc1-c1n[nH]c2ccccc12

IC50 [4]: < 50 nM | IC50 [5]: < 5 nM | IC50 [6]: < 50 nM
SMILES: CC(C)c1cnn2c(NCc3cccc4c3cnn4C)nc(OC3CCCNC3)nc12 (stereo unspecified)

IC50 [4]: 1710 nM | IC50 [13]: > 10000 nM | IC50 [5]: 0.13 nM | IC50 [6]: 6.4 nM | IC50 [14]: > 10000 nM | IC50 [8]: 53 nM
SMILES: CC(C)c1cnn2c(NCc3ccccc3-n3cccn3)nc(OC3CCCNC3)nc12 (stereo unspecified)

IC50 [4]: < 50 nM | IC50 [5]: < 5 nM | IC50 [6]: < 50 nM
SMILES: CC(C)c1cnn2c(NCc3cccc4[nH]ncc34)nc(OC3CCCNC3)nc12 (stereo unspecified)
